Patent US10188653B2, “Diacylglycerol acyltransferase 2 inhibitors” (Pfizer Inc., priority 2014, dated 2019)

Molecular target: hDGAT2 (Homo sapiens (Human), UniProt Q96PD7)
Assay: In vitro DGAT2 assay, determination of IC50 values for DGAT2 inhibitors
Type: biochemical
Settings: hDGAT2 membrane fraction; [1-14C]decanoyl-CoA and 1,2-didecanoyl-sn-glycerol substrates; geometric mean IC50; read-out: IC50 values of Examples for inhibition of DGAT2
Procedure: Recombinant baculovirus for the FLAG-tagged hDGAT2 was generated in SF9 insect cells using Bac-to-Bac baculovirus expression system (Invitrogen) according to the manufacturer's protocol. For the expression of hDGAT2, SF9 cells (20 L) grown in Sf900II media were infected with hDGAT2 baculovirus at a multiplicity of infection of 1 in a Wave Bioreactor System 20/50P wave bag (GE Healthcare). After 40 hours of infection, the cells were then harvested by centrifugation at 5,000×g. The cell pellets were washed by resuspending in phosphate buffered saline (PBS) and collected by centrifugation at 5,000×g. The cell paste was flash frozen in liquid N2 and stored at −80° C. until needed. All operations below were at 4° C. unless otherwise noted. […]
For determination of IC50 values, the reactions were carried out in 384-well white Polyplates (Perkin Elmer) in a total volume of 20 μL. […] Plates were centrifuged at 2,000×g for 1 min in an Allegra 6R Centrifuge (Beckman Coulter) and then were sealed again with fresh covers before reading in a 1450 Microbeta Wallac Trilux Scintillation Counter (Perkin Elmer). DGAT2 activity was measured by quantifying the generated product [^14C]tridecanoylglycerol in the upper organic phase. […]

hDGAT2, sequence (Q96PD7 whole entry): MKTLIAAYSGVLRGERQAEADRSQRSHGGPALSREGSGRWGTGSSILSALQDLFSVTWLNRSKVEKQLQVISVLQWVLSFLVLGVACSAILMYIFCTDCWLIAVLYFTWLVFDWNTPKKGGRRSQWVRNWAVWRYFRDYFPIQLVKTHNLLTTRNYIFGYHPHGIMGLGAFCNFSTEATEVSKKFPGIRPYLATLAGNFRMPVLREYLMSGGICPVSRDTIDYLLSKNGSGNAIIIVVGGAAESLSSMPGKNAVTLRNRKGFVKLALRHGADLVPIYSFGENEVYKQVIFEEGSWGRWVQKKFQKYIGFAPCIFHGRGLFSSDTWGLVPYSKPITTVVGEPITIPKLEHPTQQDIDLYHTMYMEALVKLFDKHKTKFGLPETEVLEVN

- IC50: 7.9 nM
Substance: (R)-2-(3-(2-ethoxy- phenoxy)piperidin-1-yl)- N-(1-hydroxy-2-methyl- propan-2-yl)pyrimidine- 5-carboxamide [Example 19.21]
